Among the data in patent US10294207B2, “Pyrazole derivatives as TNIK, IKKϵ and TBK1 inhibitor and pharmaceutical composition comprising same” (GREEN CROSS CORPORATION, priority 2015, dated 2019) are IC50 values, retold here.

Counter-ions that a name gives are not always drawn. Where only a bound is given, the exact number is not on record here.

What is called IC50 is the concentration that gives 50% inhibition. High values mean weaker potency in that assay, low ones greater potency in that assay.

The assay concerns the target T1, TBK1 (Homo sapiens, UniProt Q9UHD2).
T1 construct: purchased Promega V3991
T1 sequence (Q9UHD2 1-729): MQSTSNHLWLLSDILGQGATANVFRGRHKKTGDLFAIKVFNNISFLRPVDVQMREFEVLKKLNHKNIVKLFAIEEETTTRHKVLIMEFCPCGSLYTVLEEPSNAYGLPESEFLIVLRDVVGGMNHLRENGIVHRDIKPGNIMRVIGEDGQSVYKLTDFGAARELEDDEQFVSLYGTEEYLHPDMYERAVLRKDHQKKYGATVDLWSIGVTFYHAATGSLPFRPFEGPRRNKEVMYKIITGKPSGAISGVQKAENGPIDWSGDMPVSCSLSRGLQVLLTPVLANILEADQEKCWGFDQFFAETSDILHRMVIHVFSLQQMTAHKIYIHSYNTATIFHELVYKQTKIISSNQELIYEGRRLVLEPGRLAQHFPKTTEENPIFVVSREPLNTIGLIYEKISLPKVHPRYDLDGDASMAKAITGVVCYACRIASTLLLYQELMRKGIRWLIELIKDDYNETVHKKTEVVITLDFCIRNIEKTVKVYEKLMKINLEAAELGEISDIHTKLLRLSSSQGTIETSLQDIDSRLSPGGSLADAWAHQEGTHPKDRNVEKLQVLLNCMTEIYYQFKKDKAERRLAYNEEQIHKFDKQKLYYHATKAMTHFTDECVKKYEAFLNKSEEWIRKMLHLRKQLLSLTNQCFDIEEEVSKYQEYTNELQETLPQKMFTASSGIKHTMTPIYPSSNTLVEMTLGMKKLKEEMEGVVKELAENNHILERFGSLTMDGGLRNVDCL
As to the kind of experiment: TBK1 inhibition, ADP-Glo Kinase Assay. The assay is classed as biochemical. The note with it: luminometer. As to the method: Inhibition activities on TNIK, IKKε and TBK1 were evaluated using the compounds of Examples 1 to 254.
The inhibition activities on TNIK, IKKε and TBK1 were measured by a luminometer, TNIK/IKKε/TBK1 Kinase Enzyme System (Promega, Ca# V4158; Invitrogen, PR8031B, Promega, Ca# V3991) and ADP-Glo Kinase Assay using ADP-Glo™ Kinase Analysis Kit (Promega, Ca# V9101) and a kinase reaction buffer [40 mM Tris(pH 7.5), 20 mM MgCl2, 0.1 mg/mL BSA] in accordance with the manufacturer's protocol.
For the molecule `COc1ccc(C(=O)Nc2n[nH]c3ccc(C(=O)N(C)Cc4cccs4)cc23)cc1` [Example 4, 3-(4-Methoxybenzamido)-N-methyl-N-(thiophen-2-ylmethyl)-1H-indazole-5-carboxamide], the IC50 is 0.83 µM.
In the case of `COc1ccc(C(=O)Nc2n[nH]c3ccc(C(=O)N4CCc5ccsc5C4)cc23)cc1` [Example 5, 4-Methoxy-N-(5-(4,5,6,7-tetrahydrothieno[2,3-c]pyridine-6-carbonyl)-1H-indazol-3-yl)benzamide] it was 8.4 µM; in that of `CSc1ccc(C(=O)Nc2n[nH]c3ccc(C(=O)NCc4cccs4)cc23)cc1` [Example 6, 3-(4-(Methylthio)benzamido)-N-(thiophen-2-ylmethyl)-1H-indazole-5-carboxamide], 0.025 µM.
With `CC(C)(C)c1ccc(C(=O)Nc2n[nH]c3ccc(C(=O)NCc4cccs4)cc23)cc1` [Example 10, 3-(4-tert-Butylbenzamido)-N-(thiophen-2-ylmethyl)-1H-indazole-5-carboxamide], 0.03 µM corresponded to half-maximal inhibition (IC50). This IC50 and that of the molecule before are within 1.5-fold of each other.
In the case of `COc1ccc(C(=O)Nc2n[nH]c3ccc(NCc4cccs4)cc23)cc1` [Example 11, 4-Methoxy-N-(5-((thiophen-2-ylmethyl)amino)-1H-indazol-3-yl)benzamide] it was 0.89 µM; in that of `COc1ccc(C(=O)Nc2n[nH]c3ccc(-c4ccc(CN5CCOCC5)s4)cc23)cc1` [Example 12, 4-Methoxy-N-(5-(5-(morpholinomethyl)thiophen-2-yl)-1H-indazol-3-yl)benzamide], 0.43 µM; in that of `O=C(NCc1cccs1)c1ccc2[nH]nc(NC(=O)c3ccccc3)c2c1` [Example 13, 3-Benzamido-N-(thiophen-2-ylmethyl)-1H-indazole-5-carboxamide], 0.036 µM.
`CC(NC(=O)c1ccc2[nH]nc(NC(=O)c3ccc(F)cc3)c2c1)c1cccs1` (stereo not drawn) [Example 14, 3-(4-Fluorobenzamido)-N-(1-(thiophen-2-yl)ethyl)-1H-indazole-5-carboxamide] displayed a 50% inhibitory concentration (IC50) of 0.042 µM.
Turning to `CCC(NC(=O)c1ccc2[nH]nc(NC(=O)c3ccc(F)cc3)c2c1)c1cccs1` (stereo not drawn) [Example 17, 3-(4-Fluorobenzamido)-N-(1-(thiophen-2-yl)propyl)-1H-indazole-5-carboxamide], the IC50 was 0.013 µM.
`O=C(NCc1ccncc1)c1ccc2[nH]nc(NC(=O)c3ccc(F)cc3)c2c1` [Example 29, 3-(4-Fluorobenzamido)-N-(pyridin-4-ylmethyl)-1H-indazole-5-carboxamide]: 0.28 µM corresponded to half-maximal inhibition (IC50).
`O=C(Nc1n[nH]c2ccc(C(=O)NC(c3cccs3)C3CC3)cc12)c1ccc(F)cc1` (stereo not drawn) [Example 30, N-(Cyclopropyl(thiophen-2-yl)methyl)-3-(4-fluorobenzamido)-1H-indazole-5-carboxamide]: the midpoint of inhibition, the IC50, lay at 0.036 µM.
As for `O=C(Nc1n[nH]c2ccc(CNCc3cccs3)cc12)c1ccc(F)cc1` [Example 31, 4-Fluoro-N-(5-(((thiophen-2-ylmethyl)amino)methyl)-1H-indazol-3-yl)benzamide Hydrochloride], the IC50 was greater than 10 µM.
Regarding `O=C(NCc1cccs1)c1ccc2[nH]nc(NC(=O)c3ccc(F)cc3)c2c1` [Example 36, 3-(4-Fluorobenzamido)-N-(thiophen-2-ylmethyl)-1H-indazole-5-carboxamide], 0.089 µM corresponded to half-maximal inhibition (IC50).
Molecule `O=C(NCc1cccs1)c1ccc2[nH]nc(NS(=O)(=O)c3ccccc3)c2c1` [Example 39, 3-(Phenylsulfonamido)-N-(thiophen-2-ylmethyl)-1H-indazole-5-carboxamide] showed an IC50 greater than 10 µM.
`CN(Cc1cccs1)C(=O)c1ccc2[nH]nc(NC(=O)c3ccc(N4CCOCC4)cc3)c2c1` [Example 42, N-Methyl-3-(4-morpholinobenzamido)-N-(thiophen-2-ylmethyl)-1H-indazole-5-carboxamide] yielded an IC50 of 0.2 µM.
`O=C(NCc1ccncc1)c1ccc2[nH]nc(NC(=O)c3ccc(N4CCOCC4)cc3)c2c1` [Example 120, 3-(4-Morpholinobenzamido)-N-(pyridin-4-ylmethyl)-1H-indazole-5-carboxamide] came in with a half-inhibitory concentration (IC50) of 0.019 µM.
Then `O=C(NCc1cccs1)c1ccc2[nH]nc(NC(=O)c3ccc(NCCC4CCOCC4)cc3)c2c1` [Example 160, 3-(4-((2-(Tetrahydro-2H-pyran-4-yl)ethyl)amino)benzamido)-N-(thiophen-2-ylmethyl)-1H-indazole-5-carboxamide], with 0.0054 µM; and `CCCCCCNc1ccc(C(=O)Nc2n[nH]c3ccc(C(=O)NCc4cccs4)cc23)cc1` [Example 161, 3-(4-(Hexylamino)benzamido)-N-(thiophen-2-ylmethyl)-1H-indazole-5-carboxamide], with 0.76 µM; and `O=C(NCc1cccs1)c1ccc2[nH]nc(NC(=O)c3ccc(NC4CCCCC4)cc3)c2c1` [Example 162, 3-(4-(Cyclohexylamino)benzamido)-N-(thiophen-2-ylmethyl)-1H-indazole-5-carboxamide], with 0.08 µM.
The molecule `O=C(NCc1cccs1)c1ccc2[nH]nc(NC(=O)c3ccc(NC4CCCC4)cc3)c2c1` [Example 163, 3-(4-(Cyclopentylamino)benzamido)-N-(thiophen-2-ylmethyl)-1H-indazole-5-carboxamide] yielded an IC50 of 0.036 µM.
As for `O=C(NCc1cccs1)c1ccc2[nH]nc(NC(=O)c3ccc(NC4CCCCCC4)cc3)c2c1` [Example 164, 3-(4-(Cycloheptylamino)benzamido)-N-(thiophen-2-ylmethyl)-1H-indazole-5-carboxamide], half-maximal inhibition (IC50) required 5.6 µM.
Molecule `O=C(NCc1cccs1)c1ccc2[nH]nc(NC(=O)c3ccc(NC4CCCCCCC4)cc3)c2c1` [Example 165, 3-(4-(Cyclooctylamino)benzamido)-N-(thiophen-2-ylmethyl)-1H-indazole-5-carboxamide] came in with an IC50 of 0.43 µM.
The molecule `O=C(NCc1cccs1)c1ccc2[nH]nc(NC(=O)c3ccc(NCC4CCCCC4)cc3)c2c1` [Example 166, 3-(4-((Cyclohexylmethyl)amino)benzamido)-N-(thiophen-2-ylmethyl)-1H-indazole-5-carboxamide] yielded a half-maximal inhibitory concentration (IC50) of 0.26 µM. This IC50 lies about 1.7-fold lower than the previous one.
Molecule `O=C(NCc1cccs1)c1ccc2[nH]nc(NC(=O)c3ccc(N4CCOCC4)cc3N3CCOCC3)c2c1` [Example 168, 3-(2,4-Dimorpholinobenzamido)-N-(thiophen-2-ylmethyl)-1H-indazole-5-carboxamide] registered a 50% inhibitory concentration (IC50) of 6.6 µM.
In the case of `O=C(NCc1cccs1)c1ccc2[nH]nc(NC(=O)c3ccc(NCCn4cccc4)cc3)c2c1` [Example 169, 3-(4-((2-(1H-Pyrrol-1-yl)ethyl)amino)benzamido)-N-(thiophen-2-ylmethyl)-1H-indazole-5-carboxamide] it was 0.03 µM; in that of `CN1CCN(c2ccc(C(=O)Nc3n[nH]c4ccc(C(=O)NCc5cccs5)cc34)c(F)c2)CC1` [Example 170, 3-(2-Fluoro-4-(4-methylpiperazin-1-yl)benzamido)-N-(thiophen-2-ylmethyl)-1H-indazole-5-carboxamide], greater than 10 µM.
The molecule `O=C(NCc1cccs1)c1ccc2[nH]nc(NC(=O)c3ccc(O)cc3)c2c1` [Example 200, 3-(4-Hydroxybenzamido)-N-(thiophen-2-ylmethyl)-1H-indazole-5-carboxamide] displayed an IC50 of 0.093 µM.
Then `O=C(NCc1cccs1)c1ccc2[nH]nc(NC(=O)c3ccc([N+](=O)[O-])cc3)c2c1` [Example 203, 3-(4-Nitrobenzamido)-N-(thiophen-2-ylmethyl)-1H-indazole-5-carboxamide], with 0.075 µM; and `O=C(NCc1cccs1)c1ccc2[nH]nc(NC(=O)c3cccc([N+](=O)[O-])c3)c2c1` [Example 204, 3-(3-Nitrobenzamido)-N-(thiophen-2-ylmethyl)-1H-indazole-5-carboxamide], with 0.077 µM; and `Nc1ccc(C(=O)Nc2n[nH]c3ccc(C(=O)NCc4cccs4)cc23)cc1` [Example 205, 3-(4-Aminobenzamido)-N-(thiophen-2-ylmethyl)-1H-indazole-5-carboxamide], with 0.003 µM.
On to `O=C(NCc1cccs1)c1ccc2[nH]nc(NC(=O)c3ccc(NC(=O)C4CCC4)cc3)c2c1` [Example 206, 3-(4-(Cyclobutanecarboxamido)benzamido)-N-(thiophen-2-ylmethyl)-1H-indazole-5-carboxamide], for which the half-maximal inhibitory concentration (IC50) was 0.026 µM.
In the case of `O=C(NCc1cccs1)c1ccc2[nH]nc(NC(=O)c3ccc(NC(=O)C4(C(F)(F)F)CC4)cc3)c2c1` [Example 207, N-(Thiophen-2-ylmethyl)-3-(4-(1-(trifluoromethyl)cyclopropanecarboxamido)benzamido)-1H-indazole-5-carboxamide], the IC50 turned out to be 0.038 µM.
Regarding `O=C1CC(C(=O)Nc2ccc(C(=O)Nc3n[nH]c4ccc(C(=O)NCc5cccs5)cc34)cc2)C1` [Example 208, 3-(4-(3-Oxocyclobutanecarboxamido)benzamido)-N-(thiophen-2-ylmethyl)-1H-indazole-5-carboxamide], the 50% inhibitory concentration (IC50) was 0.027 µM.
